Experimental data: paper PMC6178282, “Comparative cell biological study of in vitro antitumor and antimetastatic activity on melanoma cells of GnRH-III-containing conjugates modified with short-chain fatty acids” (Beilstein Journal of Organic Chemistry, 2018)

Tested on: A2058 melanoma cells
Assay: Apoptosis assay, Vitabright-48 thiol staining, NucleoCounter NC-250 image cytometer
Assay type: cell-based, human
Conditions: 10^−5 M, 24 h, NucleoCounter NC-250, average of two parallels ± S.D., control 8.7 ± 0.72
Description: The pro-apoptotic effects of conjugates and Dau at 10^−5 M concentration was studied after 24 h incubation by flow cytometry using FITC-annexin V (Sony Biotechnology, Weybridge, UK) and a novel image cytometer (NucleoCounter® NC-250^TM, ChemoMetec A/S, Lillerød, Denmark) using Vitabright-48™ (ChemoMetec A/S, Lillerød, Denmark), a cell permeable dye that reacts with thiol groups to form a fluorescent product. […]
normalizing the viability of conjugate-treated cells with that of the control cells, and these indices of groups pretreated with inhibitors or DMSO were statistically compared.
The apoptotic effect of conjugates and Dau was determined by a FACSCalibur flow cytometer (Becton Dickinson, San Jose, CA, USA) after staining with annexin V-FITC (Sony Biotechnology, Weybridge, UK) and NucleoCounter® NC-250™ cell analyzer (ChemoMetec A/S, Lillerød, Denmark) using Vitabright-48™, a cell-permeable fluorescent dye (ChemoMetec A/S, Lillerød, Denmark). […]
The cells were dissociated by a TrypLE reagent (Thermo Fisher Scientific, Waltham, MA, USA) composed of recombinant enzyme protecting the cell’s surface proteins and it was followed by a centrifugation and a washing step with PBS. […] Before labeling with annexin V-FITC, the cells were measured by a flow cytometer for controlling the autofluorescence of cells in case of each treatment group. […]

## COc1cccc2c1C(=O)c1c(O)c3c(c(O)c1C2=O)C[C@@](O)(C(C)=O)C[C@@H]3O[C@H]1C[C@H](N)[C@H](O)[C@H](C)O1 [daunorubicin]
  the ratio of apoptotic cells, Vitabright-48™: 30.9 ± 0.68 %
